# Test results as given in US9351974B2, “Substituted pteridinones for the treatment of cancer” (OSI Pharmaceuticals, LLC, priority 2011, dated 2016).
# Target: T1, His-tagged full-length RSK2 (RPS6KA3) (Homo sapiens, UniProt P51812)
# T1 construct: His-tagged full-length RSK2 (RPS6KA3, Invitrogen PV3323); His; purchased Invitrogen PV3323
# Assay: RSK2 Omnia Assay for compound IC50 determination
# Format: biochemical
# Settings: ATP 15 μM, n=2, read-out: Mean RSK2 Biochem IC50
# How it was run: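 Continuous fluorescence assay (ex 360/em 485 nm) of SOX-peptide (Omnia ST Peptide 6, 5 μM) phosphorylation with ATP 15 μM (Km 16.3 μM). Enzyme was […], in pH 7.5 HEPES/MgCl2 buffer with 1% DMSO. IC50 came from 11-point threefold dilutions ([…]) by four-parameter fit of initial slopes, in duplicate; Ki by Cheng-Prusoff assuming competitive inhibition.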
# T1 sequence (P51812 whole entry): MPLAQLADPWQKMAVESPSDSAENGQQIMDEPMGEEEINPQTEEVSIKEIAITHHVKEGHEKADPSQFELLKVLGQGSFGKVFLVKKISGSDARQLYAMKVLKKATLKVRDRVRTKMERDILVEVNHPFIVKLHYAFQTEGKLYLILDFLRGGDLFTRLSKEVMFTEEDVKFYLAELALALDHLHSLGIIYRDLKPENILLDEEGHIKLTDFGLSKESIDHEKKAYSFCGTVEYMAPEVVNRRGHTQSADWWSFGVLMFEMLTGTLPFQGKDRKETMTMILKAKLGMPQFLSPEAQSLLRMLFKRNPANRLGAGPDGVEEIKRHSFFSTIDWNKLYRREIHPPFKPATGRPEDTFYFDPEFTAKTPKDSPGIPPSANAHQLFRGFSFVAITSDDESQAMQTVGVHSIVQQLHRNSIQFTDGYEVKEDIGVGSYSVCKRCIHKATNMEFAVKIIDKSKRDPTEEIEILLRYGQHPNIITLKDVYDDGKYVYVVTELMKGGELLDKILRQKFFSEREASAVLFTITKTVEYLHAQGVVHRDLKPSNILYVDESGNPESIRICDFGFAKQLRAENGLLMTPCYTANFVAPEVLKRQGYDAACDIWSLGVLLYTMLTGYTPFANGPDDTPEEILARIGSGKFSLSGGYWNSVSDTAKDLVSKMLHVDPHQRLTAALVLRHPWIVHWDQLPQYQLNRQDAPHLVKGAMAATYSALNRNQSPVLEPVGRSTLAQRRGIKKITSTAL
row,SMILES,IC50 [nM]
1,"CC(C)CCN1c2nc(Nc3ccc(CS(=O)(=O)N(C)C)cc3)ncc2N(c2ccccc2)C(=O)C1C (stereo not drawn) [Example 8, N,N-dimethyl-1-(4-{[7-methyl-8-(3-methylbutyl)-6-oxo-5-phenyl-5,6,7,8-tetrahydropteridin-2-yl]amino}phenyl)methanesulfonamide]",> 1000
2,"COc1ccc(N2C(=O)[C@@H](C)N(C3CCOCC3)c3nc(Nc4cc(F)c5[nH]c(=O)oc5c4)ncc32)cc1C#N [compound 203, 5-[(7R)-2-[(4-fluoro-2-oxo-2,3-dihydro-1,3-benzoxazol-6-yl)amino]-7-methyl-6-oxo-8-(tetrahydro-2H-pyran-4-yl)-7,8-dihydropteridin-5(6H)-yl]-2-methoxybenzonitrile]",≤ 100
3,"CCOc1ccc(N2C(=O)[C@@H](C)N(C3CCOCC3)c3nc(Nc4cc(F)c5[nH]c(=O)oc5c4)ncc32)cc1C#N [compound 204, 2-Ethoxy-5-[(7R)-2-[(4-fluoro-2-oxo-2,3-dihydro-1,3-benzoxazol-6-yl)amino]-7-methyl-6-oxo-8-(tetrahydro-2H-pyran-4-yl)-7,8-dihydropteridin-5(6H)-yl]benzonitrile]",≤ 100
4,"C[C@@H]1C(=O)N(c2ccccc2)c2cnc(Nc3ccc4[nH]ncc4c3)nc2N1CC1CCOCC1 [Example 74, (7R)-2-(1H-indazol-5-ylamino)-7-methyl-5-phenyl-8-(tetrahydro-2H-pyran-4-ylmethyl)-7,8-dihydropteridin-6(5H)-one]",≤ 100
5,"COCc1cccc(N2C(=O)[C@@H](C)N(C3CCCCC3)c3nc(Nc4ccc5[nH]ncc5c4)ncc32)c1 [compound 110, (7R)-8-cyclohexyl-2-(1H-indazol-5-ylamino)-5-[3-(methoxymethyl)phenyl]-7-methyl-7,8-dihydropteridin-6(5H)-one]",≤ 100
6,"C[C@@H]1C(=O)N(c2cccc(N(C)C)c2)c2cnc(Nc3ccc4[nH]ncc4c3)nc2N1C1CCCCC1 [Example 44, (7R)-8-cyclohexyl-5-[3-(dimethylamino)phenyl]-2-(1H-indazol-5-ylamino)-7-methyl-7,8-dihydropteridin-6(5H)-one]",≤ 100
7,"COC(=O)c1ccc(Nc2ncc3c(n2)N(CCC(C)C)C(C)C(=O)N3c2ccccc2)cc1 (stereo not drawn) [Example 9, methyl 4-{[7-methyl-8-(3-methylbutyl)-6-oxo-5-phenyl-5,6,7,8-tetrahydropteridin-2-yl]amino}benzoate]",> 1000
8,"CO[C@H]1CC[C@H](N2c3nc(Nc4cc(F)c5[nH]ncc5c4)ncc3N(c3ccc(N4CCN(C)CC4)nc3)C(=O)[C@H]2C)CC1 [compound 233, (7R)-2-[(7-fluoro-1H-indazol-5-yl)amino]-8-(trans-4-methoxycyclohexyl)-7-methyl-5-[6-(4-methylpiperazin-1-yl)pyridin-3-yl]-7,8-dihydropteridin-6(5H)-one]",≤ 100
9,"CC(C)CCN1c2nc(N[C@H]3CC[C@@H](O)CC3)ncc2N(c2ccccc2)C(=O)C1C (relative stereo) [Example 12, 2-[(cis-4-hydroxycyclohexyl)amino]-7-methyl-8-(3-methylbutyl)-5-phenyl-7,8-dihydropteridin-6(5H)-one]",> 1000
10,"C[C@@H]1C(=O)N(c2ccc(N3CCCCC3)nc2)c2cnc(Nc3cc(F)c4[nH]ncc4c3)nc2N1C1CCCCC1 [compound 142, (7R)-8-cyclohexyl-2-[(7-fluoro-1H-indazol-5-yl)amino]-7-methyl-5-[6-(piperidin-1-yl)pyridin-3-yl]-7,8-dihydropteridin-6(5H)-one]",≤ 100
11,"CCOP(=O)(Cc1ccc(Nc2ncc3c(n2)N(CCC(C)C)C(C)C(=O)N3c2ccccc2)cc1)OCC (stereo not drawn) [Example 4, diethyl (4-{[7-methyl-8-(3-methylbutyl)-6-oxo-5-phenyl-5,6,7,8-tetrahydropteridin-2-yl]amino}benzyl)phosphonate]",> 1000
12,"CC[C@@H]1C(=O)N(c2ccc(N3CCOCC3)nc2)c2cnc(Nc3cc(F)c4[nH]ncc4c3)nc2N1C1CCCCC1 [compound 292, (7R)-8-cyclohexyl-7-ethyl-2-[(7-fluoro-1H-indazol-5-yl)amino]-5-[6-(morpholin-4-yl)pyridin-3-yl]-7,8-dihydropteridin-6(5H)-one]",≤ 100
13,"CC(C)CCN1c2nc(Nc3ccc4[nH]ncc4c3)ncc2N(c2ccccc2)C(=O)[C@@H]1C [Example 17, (7S)-2-(1H-indazol-5-ylamino)-7-methyl-8-(3-methylbutyl)-5-phenyl-7,8-dihydropteridin-6(5H)-one]",≤ 100
14,"CCOc1ccc(N2C(=O)[C@@H](C)N(C3CCC(F)(F)CC3)c3nc(Nc4cnc5[nH]ncc5c4)ncc32)cc1C#N [compound 282, 5-[(7R)-8-(4,4-difluorocyclohexyl)-7-methyl-6-oxo-2-(1H-pyrazolo[3,4-b]pyridin-5-ylamino)-7,8-dihydropteridin-5(6H)-yl]-2-ethoxybenzonitrile]",≤ 100

# Results, then the compound that gave them:
row,IC50 [nM],SMILES
1,≤ 100,"COc1ccc(N2C(=O)[C@@H](C)N([C@H]3CC[C@@H](C(F)(F)F)CC3)c3nc(Nc4cc(F)c5[nH]ncc5c4)ncc32)cc1OC [compound 257, (7R)-5-(3,4-dimethoxyphenyl)-2-[(7-fluoro-1H-indazol-5-yl)amino]-7-methyl-8-[cis-4-(trifluoromethyl)cyclohexyl]-7,8-dihydropteridin-6(5H)-one]"
2,≤ 100,"[2H]C1([2H])C(N2c3nc(Nc4cc(F)c5[nH]ncc5c4)ncc3N(c3cccc(C#N)c3)C(=O)[C@H]2C)C([2H])([2H])C([2H])([2H])C([2H])([2H])C1([2H])[2H] [compound 302, 3-[(7R)-8-[(2,2,3,3,4,4,5,5,6,6-2H10)cyclohexyl]-2-[(7-fluoro-1H-indazol-5-yl)amino]-7-methyl-6-oxo-7,8-dihydropteridin-5(6H)-yl]benzonitrile]"
3,≤ 100,"CO[C@H]1CC[C@@H](N2c3nc(Nc4cc(F)c5[nH]ncc5c4)ncc3N(c3cccc(C#N)c3)C(=O)[C@H]2C)CC1 [compound 223, 3-[(7R)-2-[(7-fluoro-1H-indazol-5-yl)amino]-8-(cis-4-methoxycyclohexyl)-7-methyl-6-oxo-7,8-dihydropteridin-5(6H)-yl]benzonitrile]"
4,100 to 1000,"C[C@@H]1C(=O)N(c2cccc(C#N)c2)c2cnc(Nc3ccc4sncc4c3)nc2N1C1CCCCC1 [compound 109, 3-[(7R)-2-(1,2-benzothiazol-5-ylamino)-8-cyclohexyl-7-methyl-6-oxo-7,8-dihydropteridin-5(6H)-yl]benzonitrile]"
5,≤ 100,"C[C@@H]1C(=O)N(c2cccc(F)c2)c2cnc(Nc3cc(F)c4[nH]ncc4c3)nc2N1C1CCOCC1 [compound 189, (7R)-2-[(7-fluoro-1H-indazol-5-yl)amino]-5-(3-fluorophenyl)-7-methyl-8-(tetrahydro-2H-pyran-4-yl)-7,8-dihydropteridin-6(5H)-one]"
6,≤ 100,"C[C@@H]1C(=O)N(c2ccc(F)c(C#N)c2)c2cnc(Nc3ccc4[nH]ncc4c3)nc2N1C1CCCCC1 [compound 96, 5-[(7R)-8-cyclohexyl-2-(1H-indazol-5-ylamino)-7-methyl-6-oxo-7,8-dihydropteridin-5(6H)-yl]-2-fluorobenzonitrile]"
7,≤ 100,"CC(C)CCN1c2nc(Nc3cc(F)c4[nH]ncc4c3)ncc2N(c2cccc(C#N)c2)C(=O)[C@H]1C [Example 86, 3-[(7R)-2-[(7-fluoro-1H-indazol-5-yl)amino]-7-methyl-8-(3-methylbutyl)-6-oxo-7,8-dihydropteridin-5(6H)-yl]benzonitrile]"
